Experimental data from patent publication US11312676B2, “Small molecule stimulators of steroid receptor coactivator proteins and their use in the treatment of cancer” (BAYLOR COLLEGE OF MEDICINE, priority 2014, dated 2022).

Columns and labels:
HepG2 (liver) cells = test: MTS cell viability assay, HepG2; assay type: cell-based; settings: HepG2, 48 hours
Protocol: Cell lines were maintained in DMEM (HeLa, MCF-7, HepG2), RPMI 1640 (H1299), or DMEM/F12 (PC-3) supplemented with 10% fetal calf serum, penicillin and streptomycin (100 U/ml). Primary mouse hepatocytes were isolated and cultured. Mouse embryonic fibroblasts (MEF) were cultured in DMEM. All cells were maintained at 37° C. under 5% CO2.
Cells were seeded in 96-well plates and allowed to reach 70% to 80% confluence. After indicated compound treatments, relative numbers of viable cells were measured by MTS assay using the Cell Titer 96 Aqueous One Solution Cell Proliferation Assay (Promega).

[1] = target: T1, basic helix-loop-helix (bHLH) domain of SRC-3 (Homo sapiens, UniProt Q9Y6Q9); test: Fluorescence spectroscopy, intrinsic fluorescence of GST SRC-3 bHLH; assay type: binding; settings: 1.5 μM GST SRC-3 bHLH
T1 construct: MCB-613 also affected the fluorescence of the basic helix-loop-helix (bHLH) domain; made in house
Protocol: (§1) Fluorescence spectrometric measurements were performed on a SLM 48000S fluorescence spectrophotometer (SLM-Aminco, Rochester, N.Y.) and an Agilent Cary Eclipse Fluorescence spectrophotometer (Agilent Technologies, Inc., Santa Clara, Calif.) using the GST fusion proteins of different portions of SRC-3 expressed and purified. A total of 1.5 μM of GST SRC-3 RID, CID or bHLH was placed in a fluorescence cuvette and excited by UV light at a wavelength of 278 nm with a 2 nm bandwidth and the emission spectra were recorded from 290 nm to above 500 nm with a bandwidth of 4 nm. The aliquot size of test compound was maintained below 5% of the total sample volume in order to minimize the effects of dilution.

[2] = test system: human pediatric GBM tumor; test: Patient derived xenograft pediatric GBM model, survival; assay type: in vivo; settings: treated every day for 14 days, tumor cells in mouse brainstem
Protocol: A tumor from a human patient was transferred directly into a mouse host (patient derived xenograft) without culturing on a plastic substrate. Tumor cells (50,000) were injected into mouse brainstems and allowed to proliferate for 14 days. Animals were treated every day with either MCB-613 (test group) or vehicle (control group) for 14 days. The animals were then housed with no further experimental manipulation. Overall survival was recorded from the experimental and control groups.

HeLa cells = test: Western blot of stress, UPR, autophagy and apoptosis markers in HeLa cells; assay type: cell-based
Protocol: (§2) For Western blotting, cells were harvested and lysed in lysis buffer (50 mM Tris, pH 8.0, 150 mM NaCl, 10% glycerol, 0.5% NP40, protease and phosphatase inhibitor) and then centrifuged for 15 min at 14000 rpm at 4° C. After total cellular protein concentration was determined by Bradford analysis (Bio-Rad, Hercules, Calif.), protein lysates were loaded onto and resolved by sodium dodecyl sulfate-polyacrylamide gel electrophoresis (SDS-PAGE) and transferred to PVDF membranes (BioRad) which were blocked and incubated with indicated antibodies. For immunoprecipitation, 10 μg of plasmid encoding FLAG-SRC-3 was transfected into HeLa cells with 90% confluence in one 10 cm plate with lipofectamine 2000 (Invitrogen). Twenty-four hours after transfection, the cells were treated with MCB-613 for one hour and lysed with lysis buffer (25 mM Tris-Cl pH7.5, 150 mM NaCl, 5% glycerol, 1 mM EDTA, 1% Triton X-100, protease and phosphatase inhibitor) at 4° C. After a 30-second sonication, the lysate was cleared by centrifugation at 14000 rpm at 4° C. for 15 minutes and was incubated with anti-Flag-M2 agarose affinity gel (Sigma) for four hours. The agarose gel was washed four times with washing buffer (25 mM Tris pH 8.0, 150 mM NaCl, 1 mM EDTA, 1% Triton X-100) and resuspended with SDS loading buffer for Western blotting.

SRC-3-CBP-CARM1 complex = target: T2, SRC-3-CBP-CARM1 complex (Homo sapiens, UniProt Q9Y6Q9); test: Coimmunoprecipitation of FLAG-SRC-3 with CBP and CARM1 in HeLa cells; assay type: cell-based; settings: HeLa cells overexpressing FLAG-SRC-3, one hour, dose-dependent
T2 construct: expressed in transfected cells; host or cells: HeLa
Protocol: as §2, with “blotting. […]” for “blotting.”

intracellular ROS levels = test: Measurement of reactive oxygen species with CM-H2DCFDA; assay type: cell-based; settings: 30 minutes treatment
Protocol: Cells were loaded with 10 μM general ROS indicator CM-H2DCFDA in serum free DMEM for 30 minutes at 37° C. in the dark. After a 5-minute recovery in complete DMEM, cells were treated with indicated concentrations of MCB-613 for 30 minutes, then fixed and examined by fluorescence microscopy.

[3] = target: T3, CBP interacting domain (CID) of SRC-3 (Homo sapiens, UniProt Q9Y6Q9); test: Fluorescence spectroscopy, intrinsic fluorescence quenching of GST SRC-3 CID; assay type: binding; settings: 1.5 μM GST SRC-3 CID
T3 construct: made in house
Protocol: as §1

[4] = test system: MCF-7 breast cancer xenograft; test: MCF-7 xenograft tumor model; assay type: in vivo; settings: 20 mg/kg i.p. three times a week
Protocol: Twenty 6-8 week-old athymic nude female mice were obtained from Harlan. Two days before cancer cell injection, one estradiol pellet was embedded under the skin for each mouse and a new pellet was added twice at a one month interval. Following this, 1×10^6 MCF-7 cells […] mixed with equal volume of growth factor reduced matrigel (BD Biosciences) were injected into the fat pad of each of the 2nd pair mammary gland without clearing. The MCB-613 treatment which lasted for seven weeks was started approximately seven weeks after the cell injection when tumor sizes reached above 5 mm in diameter. Ten mice received MCB-613 (20 mg/kg) in saline by i.p. injection, whereas the control group contained 10 mice which received saline only. The compound was injected three times a week. The mice were weighed once a week and tumors were measured twice a week during the treatment period.
To further evaluate the anti-cancer potential of MCB-613, a MCF-7 breast cancer mouse xenograft model was employed to assess the tumor suppressive effects of MCB-613 in vivo. Tumors were established in athymic nude mice seven weeks after injection of MCF-7 cells into […] mammary fat pads. An MCB-613 treated group (n=10) received i.p. injection of the compound (20 mg/kg) three times a week, while a control group (n=10) was injected with a saline vehicle.

SRC-1 = SRC-1 (Homo sapiens, UniProt Q15788); test: High throughput primary screen, HEK293 cells with pG5-luc and pBIND-SRC-1; assay type: cell-based; design: expressed in transfected cells; settings: among 359,484 compounds
Source text: In a series of high throughput screens originally designed to identify SRC small molecule inhibitors, HEK293 cells transfected with a Gal4 responsive luciferase reporter (pG5-luc) and a construct encoding SRC-1, SRC-2 or SRC-3 fused with the DNA binding domain of Gal4 (pBIND-SRC-1, pBIND-SRC-2 or pBIND-SRC-3) were exposed to treatments with 359,484 compounds from a MLPCN chemical library (PubChem AID:588362, AID:652008 and AID:588354).

Sequence of SRC-1 (Q15788 whole entry, the tested form may be a part): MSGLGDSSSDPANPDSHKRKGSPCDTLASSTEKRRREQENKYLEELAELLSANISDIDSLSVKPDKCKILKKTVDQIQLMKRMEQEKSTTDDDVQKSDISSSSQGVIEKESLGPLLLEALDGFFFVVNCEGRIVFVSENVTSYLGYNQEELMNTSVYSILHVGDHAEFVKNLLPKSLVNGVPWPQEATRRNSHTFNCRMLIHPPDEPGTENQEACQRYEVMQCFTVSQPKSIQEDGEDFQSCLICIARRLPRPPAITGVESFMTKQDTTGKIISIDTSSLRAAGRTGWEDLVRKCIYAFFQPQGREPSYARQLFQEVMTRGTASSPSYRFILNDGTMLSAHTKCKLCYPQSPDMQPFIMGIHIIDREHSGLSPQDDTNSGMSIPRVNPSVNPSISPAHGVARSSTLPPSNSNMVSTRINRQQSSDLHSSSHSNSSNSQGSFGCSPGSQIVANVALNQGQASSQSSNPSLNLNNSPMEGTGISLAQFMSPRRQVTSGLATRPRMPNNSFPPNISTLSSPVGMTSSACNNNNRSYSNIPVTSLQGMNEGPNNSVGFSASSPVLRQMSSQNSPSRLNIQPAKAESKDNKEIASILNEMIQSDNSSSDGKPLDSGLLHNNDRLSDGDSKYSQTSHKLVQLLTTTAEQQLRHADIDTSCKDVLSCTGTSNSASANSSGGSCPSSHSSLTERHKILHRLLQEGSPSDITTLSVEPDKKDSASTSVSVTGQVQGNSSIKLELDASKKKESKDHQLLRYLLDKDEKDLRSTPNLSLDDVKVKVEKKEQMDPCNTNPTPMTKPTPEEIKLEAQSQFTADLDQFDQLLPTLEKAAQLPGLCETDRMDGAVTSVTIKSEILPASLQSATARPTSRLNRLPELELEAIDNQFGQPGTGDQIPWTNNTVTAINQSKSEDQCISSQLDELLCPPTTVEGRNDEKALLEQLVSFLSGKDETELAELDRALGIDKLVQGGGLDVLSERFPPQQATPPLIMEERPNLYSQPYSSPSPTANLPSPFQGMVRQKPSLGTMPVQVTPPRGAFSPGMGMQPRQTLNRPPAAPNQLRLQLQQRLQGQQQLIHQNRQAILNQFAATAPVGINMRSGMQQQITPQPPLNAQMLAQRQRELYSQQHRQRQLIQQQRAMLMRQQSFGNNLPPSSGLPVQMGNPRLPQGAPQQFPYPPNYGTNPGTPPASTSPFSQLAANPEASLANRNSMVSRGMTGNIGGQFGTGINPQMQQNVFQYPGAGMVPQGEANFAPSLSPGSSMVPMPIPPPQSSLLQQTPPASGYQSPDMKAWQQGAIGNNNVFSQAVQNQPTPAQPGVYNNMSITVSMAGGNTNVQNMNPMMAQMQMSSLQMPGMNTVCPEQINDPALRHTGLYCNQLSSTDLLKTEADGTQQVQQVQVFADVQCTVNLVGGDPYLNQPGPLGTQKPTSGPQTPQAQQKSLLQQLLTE
T1 sequence (Q9Y6Q9 25-82 limits assumed): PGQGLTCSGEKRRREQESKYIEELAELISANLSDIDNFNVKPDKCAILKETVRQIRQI
T3 sequence (Q9Y6Q9 1023-1093 limits assumed): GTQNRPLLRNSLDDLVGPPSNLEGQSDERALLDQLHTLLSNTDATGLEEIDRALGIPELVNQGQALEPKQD

## CCC1CC(=Cc2cccnc2)C(=O)C(=Cc2cccnc2)C1 (stereo not drawn) [MCB-613, 4-Ethyl-2,6-bis-pyridin-3-ylmethylene-cyclohexanone]
HepG2 (liver) cells
  cytotoxicity, cell viability: efficiently kill
[1]
  concentration affecting the fluorescence of the bHLH domain: 2 µM
[2]
  overall survival: extends survival time
HeLa cells; 4-5 hours
  proteasome function and ER stress (polyubiquitinated proteins, UPR markers): leads to proteasome dysfunction and ER stress
HeLa cells; 24 hours
  autophagy and apoptosis markers: led to the induction of LC3BII and caspase-3 cleavage
SRC-3-CBP-CARM1 complex
  SRC-3's interaction with CBP and CARM1: increased
Intracellular ROS levels
  intracellular ROS levels: rapid and marked increase
[3]
  concentration required to detect fluorescence quenching of the CID: at least 20 μM
[4]; 7 weeks
  animal toxicity: did not lead to obvious animal toxicity
  body weights between control and treated groups: identical
[4]; after one week of treatment and throughout
  tumor volumes versus controls: significantly smaller than controls
SRC-1
  activation of SRC-1 in the primary screen: greatest activation
